Earlier results on 2 molecules are cited in article PMC10885983 (Antibiotics, 2024).

The conditions of series [1]: rat, in vivo, po, cited from earlier work.
For series [2] the following is noted: cited from earlier work.
On the set-up of series [3]: method as in PMID 26312207. The following applies: humans; cited from earlier work.

Where two headings read alike, the source gives them in different places. Some results are limits rather than exact numbers.

As a reminder, the Cmax is the peak of the concentration-time curve. A word on the half-life: it is the time needed for the level to fall by half in the phase considered. On to `CC(=O)NC[C@H]1CN(c2ccc(N3CCOCC3)c(F)c2)C(=O)O1` [linezolid], for which, in series [1] (50 mg/kg), the peak concentration (Cmax) was 25000 ng/mL. Further, the half-life in series [1] was 66 min.

With `CN[C@H](CC(C)C)C(=O)N[C@H]1C(=O)N[C@@H](CC(N)=O)C(=O)N[C@H]2C(=O)N[C@H]3C(=O)N[C@H](C(=O)N[C@H](C(=O)O)c4cc(O)cc(O)c4-c4cc3ccc4O)[C@H](O)c3ccc(c(Cl)c3)Oc3cc2cc(c3O[C@@H]2O[C@H](CO)[C@@H](O)[C@H](O)[C@H]2O[C@H]2C[C@](C)(N)[C@H](O)[C@H](C)O2)Oc2ccc(cc2Cl)[C@H]1O` [vancomycin], the half-life in series [2] (intramuscular and intraperitoneal administration) was 36 min. In addition, the values for the oral bioavailability entry in series [2] (rats) and in series [3] were “below 0.5%” and under 10%, respectively.
